# Experimental data: ChEMBL document CHEMBL1201862, “PubChem BioAssay data set” (2004)
# “And” between values parts separate entries of the source, which are not always exact repeats. Equal entries are not always repeated. The source made the active and inactive calls.
# Assays:
# Cytochrome P450 1A2 = target: T1, Cytochrome P450 1A2 (Homo sapiens, UniProt P05177);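 further: PubChem cytochrome P450 panel assay, CYP1A2 panel member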
# T1 sequence (P05177 whole entry): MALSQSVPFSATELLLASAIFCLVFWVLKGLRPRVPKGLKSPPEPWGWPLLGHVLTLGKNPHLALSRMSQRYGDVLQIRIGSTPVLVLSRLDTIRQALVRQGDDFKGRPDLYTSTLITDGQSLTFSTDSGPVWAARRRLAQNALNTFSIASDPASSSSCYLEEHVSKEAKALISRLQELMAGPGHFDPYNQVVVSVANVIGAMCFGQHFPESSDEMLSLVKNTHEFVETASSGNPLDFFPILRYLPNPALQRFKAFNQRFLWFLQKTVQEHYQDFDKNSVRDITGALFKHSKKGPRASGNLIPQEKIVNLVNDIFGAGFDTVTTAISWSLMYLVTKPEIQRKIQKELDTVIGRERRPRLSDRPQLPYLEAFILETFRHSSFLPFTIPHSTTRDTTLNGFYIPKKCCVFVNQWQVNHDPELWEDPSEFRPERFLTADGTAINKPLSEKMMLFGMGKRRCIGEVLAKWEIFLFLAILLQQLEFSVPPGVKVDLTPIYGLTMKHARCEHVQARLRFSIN
# [1] = cytotoxicity toward NIH3T3 fibroblasts, dose response, counter-screen, cell-based, ATP luminescence, mouse fibroblasts (AID 2010); format: functional;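 further: cells exposed to compound for about 90 hours before reading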
# [2] = inhibitors of intracellular T. cruzi replication, confirmation, NIH3T3 host cells, beta-gal luminescence (AID 2044); format: functional, cell-based;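 further: intracellular parasites grown in NIH/3T3 mouse fibroblasts as host cells; luminescent beta-galactosidase reporter signal from transgenic T. cruzi replicating inside host cells; inhibitors lower the luminescence signal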
# [3] = tested on: Streptococcus sp. 'group A'; assay: growth inhibition of control SK(-) GAS strain, dose response, counter-screen for streptokinase expression inhibitor project, luminescence, kanamycin, BacTiterGlo, confirmation (AID 1900); format: functional, organism-based
# Streptococcus = assay: Group A Streptococcus viability loss, dose response, counter-screen for streptokinase expression inhibitor project, luminescence, BacTiterGlo (AID 1915); format: functional, organism-based;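 further: potency for reduction of bacterial viability or growth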
# [4] = target: T2, Heat shock factor protein 1 (Mus musculus, UniProt P38532); assay: inhibition of MG132-induced HSE-luciferase signal, confirmation, cell-based, NIH3T3, luminescence, dose retest (AID 2382); format: functional;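 further: NIH3T3 fibroblasts with HSF1-driven luciferase reporter stressed by proteasome inhibitor MG132; luminescence from HSF1-driven luciferase expression after 8 hours of MG132 stress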
# T2 sequence (P38532 whole entry): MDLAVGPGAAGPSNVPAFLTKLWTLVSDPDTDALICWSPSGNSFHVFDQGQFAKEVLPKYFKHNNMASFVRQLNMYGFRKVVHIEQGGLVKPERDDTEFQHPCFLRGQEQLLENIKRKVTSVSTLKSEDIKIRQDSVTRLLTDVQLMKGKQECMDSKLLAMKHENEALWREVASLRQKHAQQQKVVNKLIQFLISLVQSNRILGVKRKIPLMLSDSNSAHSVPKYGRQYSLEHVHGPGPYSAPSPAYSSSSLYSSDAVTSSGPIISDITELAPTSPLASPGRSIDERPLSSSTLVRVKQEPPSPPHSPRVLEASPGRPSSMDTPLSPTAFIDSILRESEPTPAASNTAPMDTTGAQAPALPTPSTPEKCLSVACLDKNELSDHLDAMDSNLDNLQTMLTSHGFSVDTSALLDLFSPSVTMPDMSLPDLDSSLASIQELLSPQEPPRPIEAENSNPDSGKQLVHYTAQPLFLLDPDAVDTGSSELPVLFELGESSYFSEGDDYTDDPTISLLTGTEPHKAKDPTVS
# Cytochrome P450 2C19 = Cytochrome P450 2C19 (Homo sapiens, UniProt P33261); assay: Cytochrome panel assay with activity outcomes. Panel member name: p450-cyp2c19 Compounds with AC50 equal or less than 10 uM are considered active; format: functional
# Sequence of Cytochrome P450 2C19 (P33261 whole entry): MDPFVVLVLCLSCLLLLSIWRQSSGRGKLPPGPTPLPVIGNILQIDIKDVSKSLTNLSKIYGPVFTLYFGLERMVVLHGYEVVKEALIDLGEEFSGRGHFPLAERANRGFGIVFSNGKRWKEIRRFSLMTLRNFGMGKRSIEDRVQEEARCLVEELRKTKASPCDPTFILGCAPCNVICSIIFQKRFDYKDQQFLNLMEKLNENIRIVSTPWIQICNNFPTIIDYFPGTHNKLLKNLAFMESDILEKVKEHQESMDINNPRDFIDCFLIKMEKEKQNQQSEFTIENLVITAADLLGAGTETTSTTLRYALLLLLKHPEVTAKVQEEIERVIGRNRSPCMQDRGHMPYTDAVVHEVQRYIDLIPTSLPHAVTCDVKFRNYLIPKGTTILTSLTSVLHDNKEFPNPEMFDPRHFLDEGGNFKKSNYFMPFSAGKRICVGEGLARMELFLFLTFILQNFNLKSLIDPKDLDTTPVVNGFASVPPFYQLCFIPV
# INS1 = assay: beta cell apoptosis inhibitors, cytokine rescue, dose response, luminescence, retest (AID 449756); format: functional, cell-based; settings: Rattus norvegicus;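 further: cell death triggered by IL-1 beta plus TNF-alpha plus IFN-gamma mixture; protective hits raise ATP signal compared with cytokine alone wells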
# [5] = inhibitors of firefly luciferase expression or activity, dose response, H4 neuroglioma cells, luminescence (AID 1990); format: functional, cell-based
# [6] = Luminescence Cell-Based Dose Response HTS to Identify Inhibitors of 5'UTR Stem-Loop Driven Prion Protein mRNA Translation in H4 Neuroglioblastoma Cells. [Related pubchem assays: 1827 (Project Summary), 1813 (Primary HTS)]; format: functional
# [7] = inhibitors of SNCA 5'UTR-driven reporter translation, confirmation, H4 neuroglioma cells, luminescence (AID 1988); format: functional, cell-based
smiles,measurement,setting,value
CCOC(=O)c1ccc(Cl)c(NC(=O)c2ccc(-c3ccccc3)cc2)c1,AC50,Cytochrome P450 1A2,28.2 µM (inconclusive)
Cc1ccc(-n2cc(CN3CCC(O)(c4ccccn4)CC3)c(-c3ccc(F)cc3)n2)cc1,EC50,[1],9.48 µM (active)
same,EC50,[2],3.61 µM (active)
COc1cc(C(=O)Nc2ccc(-c3nc4cc(C)ccc4o3)c(O)c2)cc(OC)c1OC,EC50,[3],2.35 µM (active)
same,EC50,Streptococcus,1.85 µM (active)
Cc1ccc(C(=N)NOC(=O)CN(C)S(=O)(=O)c2ccc(C)cc2)cc1,EC50,[4],> 195 µM (not active)
O=C(Nc1ccccc1)c1ccc(Nc2c([N+](=O)[O-])cc([N+](=O)[O-])c3ccccc23)cc1,EC50,[1],> 60 µM (not active)
same,EC50,[2],0.622 µM (active)
O=C(Cn1cnc([N+](=O)[O-])c1)Nc1cc(Oc2ccc(Cl)cc2Cl)cc([N+](=O)[O-])c1,EC50,[1],> 60 µM (not active)
same,EC50,[2],1.11 µM (active)
CCc1ccc(CN2CCCC(C(=O)c3sccc3C)C2)o1 (centres undefined),EC50,[1],16.9 µM (active)
same,EC50,[2],0.159 µM (active)
CCNC(=O)CNC(=O)c1nn(Cc2ccccc2)c(=O)c2ccccc12,EC50,[4],> 195 µM (not active)
Cc1cc(=O)[nH]c2ccccc12,AC50,Cytochrome P450 2C19; read-out: AC50,20 µM (inconclusive)
CCOc1ccc(C(=O)C[n+]2cccc3cc(C)ccc32)cc1,EC50,[1],> 30 µM (not active)
same,EC50,[2],4.12 µM (active)
Cc1ccc(Nc2nc(-c3cccnc3)cs2)cc1Cl,EC50,[1],> 60 µM (not active)
same,EC50,[2],2.13 µM (active)
COc1cccc(-c2nc(-c3ccc(NC(=O)c4cccnc4)cc3)no2)c1,AC50,INS1,1.33 µM (active)
COC(=O)Nc1nc2cc(C(=O)c3ccc(F)cc3)ccc2[nH]1 [FLUBENDAZOLE],EC50,[5],0.323 µM (active)
same,EC50,[6],0.225 µM (active)
same,EC50,[7],< 0.1 µM (active)
CCOC(=O)c1c(-c2cccs2)csc1NC(=O)CN1CCOCC1,EC50,[5],20.9 µM (active)
same,EC50,[6],80.6 µM (active)
same,EC50,[7],> 120 µM (not active)
CCc1ccc(C2=NN(CCC(=O)NC(C)CCc3ccccc3)C(=O)CC2)cc1 (centres undefined),EC50,[5],> 120 µM (not active)
same,EC50,[6],23.8 µM (active)
same,EC50,[7],119 µM (active)
O=C(Nn1c(-c2ccncc2)nc2ccccc2c1=O)c1ccc(Br)cc1,EC50,[1],> 60 µM (not active)
same,EC50,[2],0.75 µM (active)
Cc1cc(Cl)ccc1OCCCC(=O)N1CCOCC1,EC50,[4],> 195 µM (not active)
O=C(O)c1ccc(N2C(=O)CC(N3CCN(c4cccc(C(F)(F)F)c4)CC3)C2=O)cc1 (centres undefined),EC50,[4],> 195 µM (not active)
COc1cccc(NC(=O)c2oc3ccccc3c2NC(=O)c2ccc3c(c2)OCO3)c1,AC50,Cytochrome P450 1A2,6.31 µM (inconclusive)
Clc1ccccc1CN(Cc1ccccc1)c1[nH]cnc2ncnc1-2,EC50,[3],5.85 µM (active)
same,EC50,Streptococcus,> 150 µM (not active)
CCOc1ccc(-n2c(=O)[nH]cc(C(=O)N3CCCc4ccccc43)c2=O)cc1,AC50,Cytochrome P450 2C19; read-out: AC50,5.01 µM (inconclusive)
O=C1SCC(c2ccccc2)=NN1Cc1ccccc1,EC50,[4],> 195 µM (not active)
O=C(Nc1cc2ccccc2oc1=O)C1CCCCC1,AC50,Cytochrome P450 1A2,2.51 µM (inconclusive)
same,AC50,Cytochrome P450 2C19; read-out: AC50,28.2 µM (inconclusive)
O=C(Nc1cccnc1)c1cccnc1,AC50,INS1,7.3 µM (active)
CC1(C)Oc2ccc(C#N)cc2[C@H](N2CCCC2=O)[C@H]1O [(-)-CROMAKALIM],AC50,Cytochrome P450 1A2,10 µM (inconclusive) and 20 µM (inconclusive)
Cc1ccccc1Cn1ccc(NC(=O)c2cnn3c(C(F)(F)F)cc(-c4ccco4)nc23)n1,EC50,[4],19.1 µM (active)
COc1cccc(/C=C/C(=O)OCC(=O)Nc2nnc(-c3ccccc3)o2)c1,EC50,[3],6.11 µM (active)
same,EC50,Streptococcus,11.1 µM (active)
Cc1cccc(NC(=O)Cn2c(=O)n(Cc3ccco3)c(=N)c3c4c(sc32)COC(C)(C)C4)c1,EC50,[4],> 195 µM (not active)
CNc1cc(NS(=O)(=O)c2ccc(N)cc2)nc(NC)n1,AC50,Cytochrome P450 2C19,inconclusive
COc1ccc(-c2nc(CN3CCCCC3c3cccnc3)c(C)o2)c(F)c1 (centres undefined),EC50,[1],> 60 µM (inconclusive)
same,EC50,[2],1.45 µM (active)
O=S(=O)(c1ccc(Cl)cc1)N1CCCCC1c1cccnc1 (centres undefined),EC50,[1],> 60 µM (not active)
same,EC50,[2],0.838 µM (active)
CN1CCC(=C2c3ccccc3CC(=O)c3sccc32)CC1 [KETOTIFEN],AC50,Cytochrome P450 2C19,inconclusive
C[C@@H](C(=O)NCCc1c[nH]c2ccccc12)[C@@H]1C[C@@]1(C)[C@@H](NC(=O)OCc1ccccc1)c1ccccc1,AC50,Cytochrome P450 1A2,12.6 µM (inconclusive)
Fc1cc(F)c2nc(Nc3nc4c(F)cccc4s3)sc2c1,AC50,INS1,4.34 µM (active)
C[C@@H](C(=O)NCc1ccccn1)[C@H]1C[C@]1(C)[C@H](NC(=O)OCc1ccccc1)c1ccccc1,AC50,Cytochrome P450 1A2,25.1 µM (inconclusive)
COc1ccc(CNC(=O)c2cnc3scc(C)n3c2=O)cc1,EC50,[4],> 195 µM (not active)
COC(=O)[C@@]1(Cc2ccc(OC)cc2)[C@H]2c3cc(C(=O)N4CCCC4)n(CCc4ccccn4)c3C[C@H]2CN1C(=O)c1ccccc1,AC50,Cytochrome P450 2C19; read-out: AC50,25.1 µM (inconclusive)
CCN(c1ccccc1)c1cc(NC)[n+](C)c(C)n1,AC50,Cytochrome P450 1A2,31.6 µM (inconclusive)
COC(=O)c1ccc(NC(=S)N(Cc2cccnc2)Cc2ccco2)cc1,EC50,[1],> 30 µM (not active)
same,EC50,[2],0.534 µM (active)
COc1cccc(C2C(C(=O)c3cc4ccccc4o3)=C(O)C(=O)N2c2cc(C)on2)c1 (centres undefined),EC50,[4],> 195 µM (not active)
CC(C)CCNC(=O)C1CCCN1C(=O)NC1CCCCC1 (centres undefined),EC50,[4],> 195 µM (not active)
O=C1N=C2SCCN2/C1=C\c1c(Cl)cccc1Cl,AC50,Cytochrome P450 2C19; read-out: AC50,28.2 µM (inconclusive)
CN1CCN(C(=O)/C(=C\c2cccs2)NC(=O)c2ccco2)CC1,EC50,[4],> 195 µM (not active)
COC(=O)[C@@H]1C[C@H]1[C@@H](NC(=O)c1cc(C)nn1C)c1ccccc1,AC50,Cytochrome P450 2C19; read-out: AC50,39.8 µM (inconclusive)
N=C(N)SCCSC(=N)N,AC50,Cytochrome P450 1A2,2 µM (inconclusive)
CC(C)(O)C#Cc1ccc(CN2CCCC(CO)(Cc3cccc(Cl)c3)C2)cc1 (centres undefined),EC50,[1],> 60 µM (not active)
same,EC50,[2],0.455 µM (active)
Cc1ccc(OCCCCNC2CCCCC2)c(C)c1,EC50,[1],> 60 µM (not active)
same,EC50,[2],1.62 µM (active)
Cc1cc2c(cc1C)NC(c1nc3ccccc3[nH]1)C1=C(O)CC(C)(C)CC1=N2 (centres undefined),AC50,Cytochrome P450 1A2,25.1 µM (inconclusive)
same,AC50,Cytochrome P450 2C19; read-out: AC50,1.78 µM (inconclusive)
Cn1nnnc1SCc1ccccc1[N+](=O)[O-],AC50,Cytochrome P450 1A2,15.8 µM (inconclusive)
COc1ccc(NC(=O)N2CC3(CCN(C(=O)c4c(C)noc4C)CC3)C2)cc1,AC50,Cytochrome P450 2C19; read-out: AC50,39.8 µM (inconclusive)
COc1ccc(CN(C)C(=O)c2cc(S(=O)(=O)N3CCOCC3)ccc2N2CCCC2)cc1,EC50,[4],> 195 µM (not active)
